{
  "source": "patent US9149038B2",
  "about": "“4-amino-6-(heterocyclic)picolinates and 6-amino-2-(heterocyclic)pyrimidine-4-carboxylates and their use as herbicides” (Dow AgroSciences LLC, priority 2013, dated 2015)",
  "test_system": "Wheat and Barley and weed species",
  "test": "Post-Emergent Test III: postemergent herbicidal activity in wheat and barley, visual rating after 21 d and probit GR20/GR50/GR80/GR90 (Tables 9-13)",
  "assay_type": "in vivo",
  "details": "for pest or weed control at 35 g/ha / pest or weed control at 70 g/ha / pest or weed control at 140 g/ha: post-emergence, 504 h",
  "text": "Herbicidal evaluations were made visually on a scale of 0 to 100 where 0 represents no activity and 100 represents complete plant death.\nSeeds of the desired test plant species were planted in Sun Gro MetroMix® 306 planting mixture, which typically has a pH of 6.0 to 6.8 and an organic matter content of about 30 percent, in plastic pots with a surface area of 103.2 square centimeters (cm^2). When required to ensure good germination and healthy plants, a fungicide treatment and/or other chemical or physical treatment was applied. The plants were grown for 7-36 days (d) in a greenhouse with an approximate 14 hour (h) photoperiod which was maintained at about 18° C. during the day and 17° C. during the night. Nutrients and water were added on a regular basis and supplemental lighting was provided with overhead metal halide 1000-Watt lamps as necessary. The plants were employed for testing when they reached the second or third true leaf stage.\nA weighed amount, determined by the highest rate to be tested, of each test compound was placed in a 25 mL glass vial and was dissolved in 4 mL of a 97:3 v/v mixture of acetone and DMSO to obtain concentrated stock solutions. […] The concentrated stock solutions obtained were diluted with 20 mL of an aqueous mixture containing acetone, water, isopropyl alcohol, DMSO, Agri-Dex crop oil concentrate, and X-77 surfactant in a 48:39:10:1.5:1.5:0.02 v/v ratio to obtain spray solutions containing the highest application rates. Additional application rates were obtained by serial dilution of 12 mL of the high rate solution into a solution containing 2 mL of a 97:3 v/v mixture of acetone and DMSO and 10 mL of an aqueous mixture containing acetone, water, isopropyl alcohol, DMSO, Agri-Dex crop oil concentrate, and X-77 surfactant in a 48:39:10:1.5:1.5:0.02 v/v ratio to obtain ½×, ¼×, ⅛× and 1/16× rates of the high rate. Compound requirements are based upon a 12 mL application volume at a rate of 187 liters per hectare (L/ha). Formulated compounds were applied to the plant material with an overhead Mandel track sprayer equipped with 8002E nozzles calibrated to deliver 187 L/ha over an application area of 0.503 square meters at a spray height of 18 inches (43 cm) above the average plant canopy height. Control plants were sprayed in the same manner with the solvent blank.\nThe treated plants and control plants were placed in a greenhouse as described above and watered by subirrigation to prevent wash-off of the test compounds. After 21 d, the condition of the test plants as compared with that of the untreated plants was determined visually and scored on a scale of 0 to 100 percent where 0 corresponds to no injury and 100 corresponds to complete kill and are presented as indicated in Table 4.\nBy applying the well-accepted probit analysis as described by J. Berkson in Journal of the American Statistical Society, 48, 565 (1953) and by D. Finney in “Probit Analysis” Cambridge University Press (1952), herbicidal injury of a specific compound at various rates can be used to calculate GR20, GR50, GR80 and GR90 values, which are defined as growth reduction factors that correspond to the effective dose of herbicide required to provide plant growth reduction (GR) of 20 percent, 50 percent, 80 percent and 90 percent, respectively. Probit analysis was applied to data collected from multiple dose rates of individual compounds utilizing the procedures explained in the following examples. The data for some of the dose rates and analysis of all of the dose rates are captured in the following tables.",
  "note": "Like-named read-outs stand apart in the source and are kept apart here.",
  "data": [
    {"smiles": "COC(=O)c1nc(-c2ccc3c(c2F)OC(F)(F)O3)c(F)c(N)c1Cl", "note": "[Compound 10]", "values": [
      {"measurement": "GR50 ALOMY", "setting": "ALOMY black-grass (Alopecurus myosuroides), growth reduction of 50%, probit analysis", "result": 52, "unit": "g ai/ha"},
      {"measurement": "GR80 ALOMY", "setting": "ALOMY black-grass (Alopecurus myosuroides), growth reduction of 80%, probit analysis", "result": 109, "unit": "g ai/ha"},
      {"measurement": "GR90 ALOMY", "setting": "ALOMY black-grass (Alopecurus myosuroides), growth reduction of 90%, probit analysis", "result": ">140", "unit": "g ai/ha"},
      {"measurement": "GR50 APESV", "setting": "APESV bentgrass (Apera spica-venti), growth reduction of 50%, probit analysis", "result": 65, "unit": "g ai/ha"},
      {"measurement": "GR80 APESV", "setting": "APESV bentgrass (Apera spica-venti), growth reduction of 80%, probit analysis", "result": 106, "unit": "g ai/ha"},
      {"measurement": "GR90 APESV", "setting": "APESV bentgrass (Apera spica-venti), growth reduction of 90%, probit analysis", "result": 138, "unit": "g ai/ha"},
      {"measurement": "GR20 HORVS", "setting": "HORVS barley, spring (crop), growth reduction of 20%, probit analysis", "result": 11, "unit": "g ai/ha"},
      {"measurement": "pest or weed control at 35 g/ha", "setting": "Hordeum vulgare, HORVS barley, spring (crop), 35 g ai/ha, read-out: Visual Growth Reduction (%) 21 Days After Application HORVS", "result": "60 to 74", "unit": "%"},
      {"measurement": "pest or weed control at 70 g/ha", "setting": "Hordeum vulgare, HORVS barley, spring (crop), 70 g ai/ha, read-out: Visual Growth Reduction (%) 21 Days After Application HORVS", "result": "75 to 84", "unit": "%"},
      {"measurement": "pest or weed control at 140 g/ha", "setting": "Hordeum vulgare, HORVS barley, spring (crop), 140 g ai/ha, read-out: Visual Growth Reduction (%) 21 Days After Application HORVS", "result": "85 to 94", "unit": "%"},
      {"measurement": "Visual Growth Reduction (%) 21 Days After Application KCHSC", "setting": "KCHSC kochia (Kochia scoparia), 35 g ai/ha", "result": "G (0-29)"},
      {"measurement": "Visual Growth Reduction (%) 21 Days After Application KCHSC", "setting": "KCHSC kochia (Kochia scoparia), 70 g ai/ha", "result": "D (60-74)"},
      {"measurement": "Visual Growth Reduction (%) 21 Days After Application KCHSC", "setting": "KCHSC kochia (Kochia scoparia), 140 g ai/ha", "result": "C (75-84)"},
      {"measurement": "GR50 KCHSC", "setting": "KCHSC kochia (Kochia scoparia), growth reduction of 50%, probit analysis", "result": 78, "unit": "g ai/ha"},
      {"measurement": "GR80 KCHSC", "setting": "KCHSC kochia (Kochia scoparia), growth reduction of 80%, probit analysis", "result": 117, "unit": "g ai/ha"},
      {"measurement": "GR90 KCHSC", "setting": "KCHSC kochia (Kochia scoparia), growth reduction of 90%, probit analysis", "result": ">140", "unit": "g ai/ha"},
      {"measurement": "GR50 LOLSS", "setting": "LOLSS ryegrass, growth reduction of 50%, probit analysis", "result": 93, "unit": "g ai/ha"},
      {"measurement": "GR80 LOLSS", "setting": "LOLSS ryegrass, growth reduction of 80%, probit analysis", "result": ">140", "unit": "g ai/ha"},
      {"measurement": "GR90 LOLSS", "setting": "LOLSS ryegrass, growth reduction of 90%, probit analysis", "result": ">140", "unit": "g ai/ha"},
      {"measurement": "GR50 SETVI", "setting": "SETVI green foxtail (Setaria viridis), growth reduction of 50%, probit analysis", "result": 36, "unit": "g ai/ha"},
      {"measurement": "GR80 SETVI", "setting": "SETVI green foxtail (Setaria viridis), growth reduction of 80%, probit analysis", "result": 63, "unit": "g ai/ha"},
      {"measurement": "GR90 SETVI", "setting": "SETVI green foxtail (Setaria viridis), growth reduction of 90%, probit analysis", "result": 85, "unit": "g ai/ha"},
      {"measurement": "GR20 TRZAS", "setting": "TRZAS wheat, spring (crop), growth reduction of 20%, probit analysis", "result": 4, "unit": "g ai/ha"},
      {"measurement": "pest or weed control at 35 g/ha", "setting": "Triticum aestivum, TRZAS wheat, spring (crop), 35 g ai/ha, read-out: Visual Growth Reduction (%) 21 Days After Application TRZAS", "result": "60 to 74", "unit": "%"},
      {"measurement": "pest or weed control at 70 g/ha", "setting": "Triticum aestivum, TRZAS wheat, spring (crop), 70 g ai/ha, read-out: Visual Growth Reduction (%) 21 Days After Application TRZAS", "result": "85 to 94", "unit": "%"},
      {"measurement": "pest or weed control at 140 g/ha", "setting": "Triticum aestivum, TRZAS wheat, spring (crop), 140 g ai/ha, read-out: Visual Growth Reduction (%) 21 Days After Application TRZAS", "result": "85 to 94", "unit": "%"},
      {"measurement": "pest or weed control at 35 g/ha", "setting": "ALOMY black-grass (Alopecurus myosuroides), 35 g ai/ha, read-out: Visual Growth Reduction (%) 21 Days After Application ALOMY", "result": "30 to 44", "unit": "%"},
      {"measurement": "pest or weed control at 70 g/ha", "setting": "ALOMY black-grass (Alopecurus myosuroides), 70 g ai/ha, read-out: Visual Growth Reduction (%) 21 Days After Application ALOMY", "result": "45 to 59", "unit": "%"},
      {"measurement": "pest or weed control at 140 g/ha", "setting": "ALOMY black-grass (Alopecurus myosuroides), 140 g ai/ha, read-out: Visual Growth Reduction (%) 21 Days After Application ALOMY", "result": "85 to 94", "unit": "%"},
      {"measurement": "pest or weed control at 35 g/ha", "setting": "APESV bentgrass (Apera spica-venti), 35 g ai/ha, read-out: Visual Growth Reduction (%) 21 Days After Application APESV", "result": "0 to 29", "unit": "%"},
      {"measurement": "pest or weed control at 70 g/ha", "setting": "APESV bentgrass (Apera spica-venti), 70 g ai/ha, read-out: Visual Growth Reduction (%) 21 Days After Application APESV", "result": "45 to 59", "unit": "%"},
      {"measurement": "pest or weed control at 140 g/ha", "setting": "APESV bentgrass (Apera spica-venti), 140 g ai/ha, read-out: Visual Growth Reduction (%) 21 Days After Application APESV", "result": "85 to 94", "unit": "%"},
      {"measurement": "pest or weed control at 35 g/ha", "setting": "LOLSS ryegrass, 35 g ai/ha, read-out: Visual Growth Reduction (%) 21 Days After Application LOLSS", "result": "0 to 29", "unit": "%"},
      {"measurement": "pest or weed control at 70 g/ha", "setting": "LOLSS ryegrass, 70 g ai/ha, read-out: Visual Growth Reduction (%) 21 Days After Application LOLSS", "result": "30 to 44", "unit": "%"},
      {"measurement": "pest or weed control at 140 g/ha", "setting": "LOLSS ryegrass, 140 g ai/ha, read-out: Visual Growth Reduction (%) 21 Days After Application LOLSS", "result": "60 to 74", "unit": "%"},
      {"measurement": "pest or weed control at 35 g/ha", "setting": "SETVI green foxtail (Setaria viridis), 35 g ai/ha, read-out: Visual Growth Reduction (%) 21 Days After Application SETVI", "result": "60 to 74", "unit": "%"},
      {"measurement": "pest or weed control at 70 g/ha", "setting": "SETVI green foxtail (Setaria viridis), 70 g ai/ha, read-out: Visual Growth Reduction (%) 21 Days After Application SETVI", "result": "75 to 84", "unit": "%"},
      {"measurement": "pest or weed control at 140 g/ha", "setting": "SETVI green foxtail (Setaria viridis), 140 g ai/ha, read-out: Visual Growth Reduction (%) 21 Days After Application SETVI", "result": "95 to 100", "unit": "%"}
    ]}
  ]
}
